SMILES strings stand for the structures.

The data set can be described thus: in vitro. The note with it: human, real gastrointestinal fluid or homogenate; for remaining at 1 h, 1 mg/ml: pH 7, % Peptide remaining at 1 hours (T = 1 h). The method, then: A human colonic model based on a mixed faecal inoculum was used to mimic the luminal environment of the human large intestine. An anaerobic workstation (Electrotek 500TG™ workstation, Electrotek, West Yorkshire, UK) maintained at 37° C. and 70% relative air humidity was used to set up the model. The fecal material was transferred in the anaerobic workstation and diluted with freshly prepared basal medium to obtain 20% w/w slurry by homogenization. The basal media provides nutrients and growth factors to the microbiota allowing viability for up to 24 hours. The homogenized bacterial media was sieved through an open mesh fabric (SefarNitex™, pore size 350 μm) to remove any nonhomogeneous fibrous material. The pH was maintained at approximately 7 to mimic the colonic luminal pH of the human.
Desmopressin stock solution was prepared in HPLC water at 2 mg/ml without or with single L-amino acids, combinations of L-amino acids or di-peptides at 10 and/or 20 and/or 40 mM concentrations and added to […] human faecal slurry; […] Samples were withdrawn at appropriate time points and added to HPLC grade methanol in a ratio of 1:1. The samples were centrifuged at […] for 10 minutes at 4° C. and the supernatant was analysed by Reversed Phase-HPLC (RP-HPLC).
Sample analysis was performed using a high performance liquid chromatography (HPLC) system (Agilent Technologies, 1260 Infinity II Series™) equipped with a pump (model G7111A), autosampler (model G7129A) and a diode-array UV detector (model G7114A). A 150×4.6-mm, 5 μm, 100 Å (Phenomenex, UK) reversed phase chromatography column was used for sample separation using 0.1% TFA in water (A) and acetonitrile (B) as the mobile phase for elution, at a flow rate of 1 ml/min. The gradient was set up with 17% of B at 0-4 minutes, 30% of B at 20 minutes and 17% of B at 20.01-23 minutes. The analysis was operated at room temperature and UV detection wavelength was set at 220 nm. Each sample was run for 23 minutes to allow complete elution of the sample without overlapping matrix interferences.
Colon stability was assessed using the Human Colon model with the amount of intact desmopressin remaining at each time point assessed by RP-HPLC as described in the Methods section.
Colon stability was assessed using the Human Colon model with the amount of intact oxytocin, oxytocin with 1 D-amino acid and linear oxytocin remaining at each time point assessed by RP-HPLC as described in the Methods section.

For `CC[C@H](C)[C@@H]1NC(=O)[C@H](Cc2ccc(O)cc2)NC(=O)[C@@H](N)CSSC[C@@H](C(=O)N2CCC[C@H]2C(=O)N[C@@H](CC(C)C)C(=O)NCC(N)=O)NC(=O)[C@H](CC(N)=O)NC(=O)[C@H](CCC(N)=O)NC1=O` [Oxytocin], the amount remaining at 1 h, 1 mg/ml is 6.6 ± 0.25%. Take `CC[C@H](C)[C@H](NC(=O)[C@H](Cc1ccc(O)cc1)NC(=O)[C@@H](N)CS)C(=O)N[C@@H](CCC(N)=O)C(=O)N[C@@H](CC(N)=O)C(=O)N[C@@H](CS)C(=O)N1CCC[C@H]1C(=O)N[C@H](CC(C)C)C(=O)NCC(N)=O` [Linear Oxytocin with 1 D-amino acid]: the share remaining at 1 h, 1 mg/ml was 0%. Also, the amount remaining at 0.5 h, 1 mg/ml (pH 7, % Peptide remaining at 0.5 hours (T = 0.5 h)) was 0%. `NC(=O)CC[C@@H]1NC(=O)[C@H](Cc2ccccc2)NC(=O)[C@H](Cc2ccc(O)cc2)NC(=O)CCSSC[C@@H](C(=O)N2CCC[C@H]2C(=O)N[C@H](CCCN=C(N)N)C(=O)NCC(N)=O)NC(=O)[C@H](CC(N)=O)NC1=O` [Desmopressin]: the “% Desmopressin remaining after 1 hours (T = 1 h)” value (1 h, 0.1 mg/ml, pH 7) came to 22.6 ± 2.7%. For the same molecule, under “pH 7, % Desmopressin remaining after 1 hours (T = 1 h)”, the amount remaining at 1 h, 0.1 mg/ml was determined as 28.8 ± 1.2%.

As a reminder, the amount remaining is what is left of the initial amount, in per cent.

Values taken from US20230405081A1, “PHARMACEUTICAL COMPOSITION COMPRISING A PEPTIDE AS ACTIVE INGREDIENT” (INTRACT PHARMA LIMITED, priority 2020, published 2023).
